Literature values in US20170020882A1, “ANTIVIRAL FORMULATION” (MEDA PHARMA SARL, priority 2008, published 2017).

How the values were obtained:
[1] = human, in vivo
cold sore lesions = conditions: human, in vivo

Compound | frequency of aborted lesions [1] [%] | reduction in healing time (cold sore lesions) [days] | reduction of time to loss of pain (cold sore lesions) [days]
CC(=O)OCC(CCn1cnc2cnc(N)nc21)COC(C)=O [famciclovir] | 8 |  | 
Nc1nc2c(ncn2CCC(CO)CO)c(=O)[nH]1 [penciclovir] |  | 0.7 | 0.6
